{
  "source": "patent US6855727B2",
  "about": "“Muscular fatigue-controlling composition and method for providing muscular fatigue-controlling effect” (Yaizu Suisankagaku Industry Co., Ltd., priority 2000, dated 2005)",
  "assay": "lactic acid amount in plasma after loading of exercise",
  "format": "in vivo",
  "details": "Test Example 2; mice, 200 mg/kg oral (total amount); 1 hour after loading of exercise (FIG. 6)",
  "protocol": "Further, when 1 hour passed after the loading of exercise, the blood was collected and the plasma was separated, and the lactic acid amount in the plasma was measured. The measurement of lactic acid amount was carried out with a commercially available kit (trade name: “F-kit L-lactic acid”; manufactured by Beringer Mannheim Co.). […] Further, when 1 hour passed after the loading of exercise, the blood was collected and the plasma was separated, and the lactic acid amount in the plasma was measured in the same manner as in TEST EXAMPLE 1.",
  "data": [
    {"smiles": "O=C[C@H](O)[C@H](O)[C@H](O)CO", "note": "[ribose, D-ribose]", "values": [
      {"measurement": "lactic acid amount in the plasma, decrease as compared with the control group", "value": 29.4, "unit": "%"}
    ]}
  ]
}
